Patent publication US9149543B2, “Methods and models for rapid, widespread delivery of genetic material to the CNS using non-viral, cationic lipid-mediated vectors” (The Trustees of the University of Pennsylvania, priority 2005, dated 2015)

Assay: DNA protection assay of DMDK lipoplex against DNase and human CSF (agarose gel)
Format: in vitro ADME
Conditions: lipoplex incubated with DNAses or human CSF in vitro
Description: Naked DNA and DMDK/DNA complexes were incubated at 37° C. for thirty minutes with 1 μl of RQ1 RNase-Free DNase and 10× Reaction Buffer (Promega, Madison, Wis.). One unit of RQ1 RNase-Free DNase (1 unit/μl) is defined as the amount required to completely degrade 1 μg of lambda DNA in 10 minutes at 37° C. in 50 μl of a buffered solution. After 30 minutes of incubation, aliquots were removed and used for transfection or phenol/chloroform extraction.
Incubation and transfection were also carried out in human CSF, obtained under an approved IRB protocol at the University of Pennsylvania, wherein CSF was collected under sterile conditions at the Hospital of the University of Pennsylvania during the normal course of pre-operative spinal anesthetic administration.
An equal volume of phenol/chlororform/isoamyl alcohol was added to the DNA solution. This solution was vortexed for 10 seconds, briefly centrifuged, and the aqueous layer removed and placed in a new tube. 1/10 volume of 3M sodium acetate was added and then vortexed. Next, 2.5 volumes of ice-cold 100% EtOH was added, vortexed and placed in a −70° C. freezer for 15 minutes. The solution was then microcentrifuged for 5 minutes at maximum speed, and the supernatant was removed. 1 ml of 70% EtOH (room temperature) was added, and centrifuged for 5 minutes at maximum speed. The supernatant was removed and the pellet dried. […]

CCCCCCCCCCCCCCC(=O)C(=O)CCCCCCCCCCCCCC [DMDK, Dimyristyl Diketone]
protection of plasmid DNA from degradation from DNAses or from human cerebral spinal fluid: effectively protect plasmid DNA from degradation
